Results published in patent US20040157280A1, “Antibody mediated ozone generation” (priority 2001, published 2004).
“Also recorded” adds a separate entry of the source.

Assays:
E. coli = assay: Bactericidal assay, E. coli (strain not singled out); assay type: cell-based; details: for bactericidal activity (in words): HPIX 40 μM, white light 1 h, 4° C.
Description: In a typical experiment, a culture of E. coli (in log phase growth, OD600=0.2-0.3) was repeatedly pelleted (3×3,500 rpm) and resuspended in PBS (pH 7.4). The PBS suspended cells were then added to glass vials and cooled to 4° C. Hematoporphyrin IX (40 μM) and antibody (20 μM) were added and the vials were either placed on a light box (visible light, 2.8 mW cm^−2) or in the dark at 4° C. and incubated for 1 h. Viability was determined by recovery of colony forming units (CFUs) on agar plates. Each experiment was performed at least in duplicate.
In a typical experiment, a culture of E. coli (in log phase growth, OD600=0.2-0.3) was repeatedly washed in PBS by pelleting (3×3,500 rpm) the cells and resuspending them in PBS (pH 7.4). The PBS suspended cells were then added to glass vials and cooled to 4° C. Hematoporphyrin IX (40 μM) and antibody (20 μM) were added and the vials were either placed on a light box (visible light, 2.8 mW cm^−2) or in the dark at 4° C. and incubated for 1 h. Viability was determined by recovery of colony forming units (CFUs) on agar plates. Each experiment was performed at least in duplicate.

human neutrophils (PMNs) = assay: Oxidation of indigo carmine 1 by activated human neutrophils; assay type: cell-based; details: indigo carmine 30 μM, PMNs 1.5×10^7 cell/mL, phorbol myristate 1 μg/mL, 37° C.
Description: FIG. 20A illustrates the time course of oxidation of indigo carmine 1 (30 μM) (Δ) and formation of 2 (▪) by human neutrophils (PMNs, 1.5×10^7 cell/mL) activated with phorbol myristate (1 μg/mL) in PBS (pH 7.4) at 37° C. No oxidation of indigo carmine 1 occurs with PMNs that are not activated (data not shown). Neutrophils were prepared as previously described. Hypochlorous acid (HOCl) is an oxidant known to be produced by neutrophils.
Human neutrophils were prepared as described by M. Markert, P. C. Andrews, and B. M. Babior Methods Enzymol. 105, 358 (1984). Following activation with phorbol myristate (1 μg/mL), the neutrophils (1.5×10^7 cells/mL) produced an oxidant species that oxidatively cleaves indigo carmine 1 to isatin sulfonic acid 2 (FIG. 19 and FIG. 20B). Hypochlorous acid (HOCI) is an oxidant that is known to be produced by neutrophils.

[1] = Long-term near-UV photo-production of H2O2 with catalase cycles; assay type: biochemical
Description: FIG. 8A illustrates the production of H2O2 by immunoglobulins and non-immunoglobulin proteins. Assays were performed by near-UV irradiation (312 nm, 800 μW cm^−2) of individual antibody/protein samples (100 μL, 6.7 μM) in phosphate-buffered saline (PBS) [10 mM sodium phosphate, 150 mM NaCl (pH 7.4)] in a sealed glass vial on a transilluminator (Fischer Biotech) under ambient aerobic conditions at 20EC. Aliquots (10 μL) were removed at timed intervals throughout the assay. H2O2 concentration was determined by the amplex red method. […]
FIG. 8B illustrates the long-term production of H2O2 by sheep poly-IgG (6.7 μM, 200 μL). […] H2O2 concentration was measured as described in FIG. 8A. […]
FIG. 8E illustrates the long-term inhibition of antibody photo-production of H2O2 by H2O2 and complete re-establishment of activity after removal of H2O2. […] H2O2 fo rmation throughout the assay was measured by the amplex red assay. […]
FIG. 11B provides the effect of chloride ion on antibody-mediated photo-production of H2O2. […] Aliquots (10 μL) were removed throughout the assay and the H2O2 concentration determined by the amplex red assay. […]

[2] = Hydrogen peroxide production by UV-irradiated antibody/protein (Amplex Red assay); assay type: biochemical; details: UV irradiation in PBS
Description: Antibody/Protein Irradiation. Unless otherwise stated, the assay solution (100 μl, 6.7 μM protein in PBS, pH 7.4) was added to a glass vial, sealed with a screw-cap, and irradiated with either UV (312 nm, […] Fischer-Biotech transilluminator) or visible light.
Quantitative Assay for Hydrogen Peroxide. An aliquot (20 μl) from the protein solution was removed and added into a well of a 96-well microtiter plate (Costar) containing reaction buffer (80 μl). Working solution (100 μl/400 μM Amplex Red reagent ½ units/ml horseradish peroxidase) was then added, and the plate was incubated in the dark for 30 min. The fluorescence of the well components was then measured using a CytoFluor Multiwell Plate Reader (Series 4000, PerSeptive Biosystems, Framingham, Mass.; Ex/Em: 530/580 nm). The hydrogen peroxide concentration was determined using a standard curve. All experiments were run in duplicate, and the rate is quoted as the mean of at least two measurements.
Denaturation. IgG 19G12 (100 μl, 6.7 μM) was heated to 100EC in an Eppendorf tube for 2 min. The resultant solution was transferred to a glass, screw-cap vial and irradiated with UV light for 30 min. The concentration of H2O2 was determined after 30 min.

Molecule: CC1=C(CCC(=O)O)c2cc3[nH]c(cc4nc(cc5[nH]c(cc1n2)c(C)c5C(C)O)C(C)=C4C(C)O)c(C)c3CCC(=O)O (stereo not drawn) [hematoporphyrin IX]
- bactericidal activity (in words) (E. coli): negligible bactericidal activity

Molecule: O=C1/C(=C2\Nc3ccc(S(=O)(=O)O)cc3C2=O)Nc2ccc(S(=O)(=O)O)cc21 [indigo carmine 1, indigo carmine]
- isatin sulfonic acid 2 formed (human neutrophils (PMNs)): 25.1 ± 0.3 µM

Molecule: N[C@@H](Cc1c[nH]c2ccccc12)C(=O)O [tryptophan]
- production of H2O2 during near-UV irradiation ([1]; tryptophan 20 μM): ca. 0.5 mole equivalents

Molecule: bovine serum albumin: bovine serum albumin
- bactericidal activity (in words) (E. coli): no bacterial killing

Molecule: catalase
- protection against the bactericidal activity of non-specific antibodies (E. coli; catalase 13 mU/mL): complete protection; also recorded: completely attenuated the bactericidal activity

Molecule: chick ovalbumin: chick-egg ovalbumin from Sigma
- ability to reduce ^1O2 / generate H2O2 (in words) [2]: one of the most efficient proteins at reducing ^1O2

Molecule: superoxide dismutase: enzyme obtained from Sigma
- ability to reduce ^1O2 / generate H2O2 (in words) [2]: the same as irradiation of PBS alone; also recorded: do not reduce ^1O2

Molecule: β-galactosidase: enzyme from Sigma; most efficient non-immunoglobulin protein at H2O2 photo-production
- H2O2 generated by photo-production ([1]; near-UV, from its 39 Trp residues): 5.9 mol eq.

B1: RNase A: ribonuclease from Amersham Pharmacia (protein, UniProt P61823 27-150, looked up)
Ribonuclease pancreatic: KETAAAKFERQHMDSSTSAASSSNYCNQMMKSRNLTKDRCKPVNTFVHESLADVQAVCSQKNVACKNGQTNCYQSYSTMSITDCRETGSSKYPNCAYKTTQANKHIIVACEGNPYVPVHFDASV
- ability to reduce ^1O2 / generate H2O2 (in words) [2]: do not reduce ^1O2
